Reference: ChEMBL document CHEMBL3259515, “Further studies on ethyl 5-hydroxy-indole-3-carboxylate scaffold: design, synthesis and evaluation of 2-phenylthiomethyl-indole derivatives as efficient inhibitors of human 5-lipoxygenase” (Eur J Med Chem, 2014)
The source made the active and inactive calls. The calls are words filed in the database; no cut-off is given here.

Key:
[1] = molecular target: T1, Polyunsaturated fatty acid lipoxygenase ALOX12 (Homo sapiens) (UniProt P18054); assay: Inhibition of 12-LO-mediated 12-H(P)ETE production in human polymorphonuclear leukocytes assessed as remaining activity preincubated at 10 uM for 15 mins by HPLC analysis; format: cell-based
T1 sequence (whole entry): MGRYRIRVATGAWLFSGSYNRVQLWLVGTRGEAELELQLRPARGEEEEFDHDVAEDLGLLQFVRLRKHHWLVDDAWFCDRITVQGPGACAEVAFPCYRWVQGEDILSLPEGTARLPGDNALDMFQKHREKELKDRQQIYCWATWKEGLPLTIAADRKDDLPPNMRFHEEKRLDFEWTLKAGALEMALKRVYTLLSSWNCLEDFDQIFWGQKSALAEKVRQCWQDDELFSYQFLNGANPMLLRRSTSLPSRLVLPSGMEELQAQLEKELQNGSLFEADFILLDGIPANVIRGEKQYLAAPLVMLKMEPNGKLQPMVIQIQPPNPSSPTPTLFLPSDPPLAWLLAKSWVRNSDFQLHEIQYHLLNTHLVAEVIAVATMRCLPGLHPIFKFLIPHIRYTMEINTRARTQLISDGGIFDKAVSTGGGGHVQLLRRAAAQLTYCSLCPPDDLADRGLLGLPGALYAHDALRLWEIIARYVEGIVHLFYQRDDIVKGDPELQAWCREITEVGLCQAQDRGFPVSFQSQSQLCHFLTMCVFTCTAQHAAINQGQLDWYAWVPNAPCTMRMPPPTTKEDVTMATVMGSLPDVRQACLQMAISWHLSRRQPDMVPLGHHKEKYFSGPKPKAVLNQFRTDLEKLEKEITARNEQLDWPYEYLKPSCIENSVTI

[2] = molecular target: T2, Polyunsaturated fatty acid 5-lipoxygenase (Homo sapiens, UniProt P09917); assay: Inhibition of human recombinant 5-LO expressed in Escherichia coli BL21 using arachidonic acid as substrate preincubated for 5 to 10 mins by HPLC analysis
T2 sequence (P09917 whole entry): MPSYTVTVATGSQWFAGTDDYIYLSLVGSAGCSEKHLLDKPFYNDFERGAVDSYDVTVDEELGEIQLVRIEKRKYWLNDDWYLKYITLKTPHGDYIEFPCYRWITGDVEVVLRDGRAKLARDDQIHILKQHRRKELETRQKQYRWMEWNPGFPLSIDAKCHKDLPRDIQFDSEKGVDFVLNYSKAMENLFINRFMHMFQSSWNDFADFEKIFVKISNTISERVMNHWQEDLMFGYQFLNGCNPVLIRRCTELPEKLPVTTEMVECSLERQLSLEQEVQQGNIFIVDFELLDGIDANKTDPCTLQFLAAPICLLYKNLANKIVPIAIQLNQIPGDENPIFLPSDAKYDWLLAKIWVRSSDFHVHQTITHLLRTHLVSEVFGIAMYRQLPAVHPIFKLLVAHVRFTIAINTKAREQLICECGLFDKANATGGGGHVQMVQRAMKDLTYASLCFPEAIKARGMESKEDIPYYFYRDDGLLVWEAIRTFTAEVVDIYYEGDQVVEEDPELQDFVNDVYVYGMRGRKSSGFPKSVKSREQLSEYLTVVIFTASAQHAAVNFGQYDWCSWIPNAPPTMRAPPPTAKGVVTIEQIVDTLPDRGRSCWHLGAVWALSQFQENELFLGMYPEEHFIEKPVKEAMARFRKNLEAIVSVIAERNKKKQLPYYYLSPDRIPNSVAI

[3] = molecular target: T3, Polyunsaturated fatty acid lipoxygenase ALOX15 (Homo sapiens) (UniProt P16050); assay: Inhibition of 15-LO-mediated 15-H(P)ETE production in human polymorphonuclear leukocytes assessed as remaining activity preincubated at 10 uM for 15 mins by HPLC analysis; format: cell-based
T3 sequence (whole entry): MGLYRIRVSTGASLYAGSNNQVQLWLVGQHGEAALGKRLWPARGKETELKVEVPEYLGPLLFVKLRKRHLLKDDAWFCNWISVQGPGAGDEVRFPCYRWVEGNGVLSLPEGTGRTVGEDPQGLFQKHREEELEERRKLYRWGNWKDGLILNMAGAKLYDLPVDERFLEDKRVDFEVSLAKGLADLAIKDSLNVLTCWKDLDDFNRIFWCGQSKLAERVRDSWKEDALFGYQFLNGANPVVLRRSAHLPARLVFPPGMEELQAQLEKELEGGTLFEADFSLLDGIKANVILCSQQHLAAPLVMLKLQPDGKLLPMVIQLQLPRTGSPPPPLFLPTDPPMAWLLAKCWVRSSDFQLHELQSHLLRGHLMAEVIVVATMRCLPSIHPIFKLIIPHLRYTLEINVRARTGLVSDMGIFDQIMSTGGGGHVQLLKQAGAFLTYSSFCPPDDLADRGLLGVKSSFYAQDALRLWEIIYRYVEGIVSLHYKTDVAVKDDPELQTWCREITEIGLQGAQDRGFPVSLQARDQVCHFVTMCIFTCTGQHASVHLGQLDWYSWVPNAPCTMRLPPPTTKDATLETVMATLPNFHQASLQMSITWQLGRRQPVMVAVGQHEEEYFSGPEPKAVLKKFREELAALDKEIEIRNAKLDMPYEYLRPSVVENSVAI

[4] = molecular target: T2, Polyunsaturated fatty acid 5-lipoxygenase; assay: Inhibition of 5-LO in human polymorphonuclear leukocytes assessed as inhibition of LTB4 production from arachidonic acid preincubated for 15 mins by HPLC analysis; format: cell-based
[5] = molecular target: T4, Prostaglandin G/H synthase 2 (Homo sapiens) (UniProt P35354); assay: Inhibition of human recombinant COX2 preincubated for 5 mins by HPLC analysis
T4 sequence (whole entry): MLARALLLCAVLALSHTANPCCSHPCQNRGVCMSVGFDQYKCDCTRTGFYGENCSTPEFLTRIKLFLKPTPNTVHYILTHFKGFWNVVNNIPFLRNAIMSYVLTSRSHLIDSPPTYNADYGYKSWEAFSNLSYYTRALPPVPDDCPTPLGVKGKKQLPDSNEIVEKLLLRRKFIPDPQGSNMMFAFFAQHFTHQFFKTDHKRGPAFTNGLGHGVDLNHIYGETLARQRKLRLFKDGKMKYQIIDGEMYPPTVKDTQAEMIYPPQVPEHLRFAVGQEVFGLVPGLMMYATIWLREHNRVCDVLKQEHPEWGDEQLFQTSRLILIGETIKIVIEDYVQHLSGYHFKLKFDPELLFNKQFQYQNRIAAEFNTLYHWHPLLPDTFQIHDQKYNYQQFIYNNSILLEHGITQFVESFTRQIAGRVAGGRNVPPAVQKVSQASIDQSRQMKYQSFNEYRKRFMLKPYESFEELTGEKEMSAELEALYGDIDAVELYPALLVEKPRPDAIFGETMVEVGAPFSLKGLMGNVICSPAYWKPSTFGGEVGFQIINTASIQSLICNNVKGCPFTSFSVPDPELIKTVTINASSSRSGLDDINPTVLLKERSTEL

[6] = molecular target: T5, Polyunsaturated fatty acid lipoxygenase ALOX15 (Homo sapiens, UniProt P16050); assay: Inhibition of 15-LO in human polymorphonuclear leukocytes assessed as inhibition of 15-H(P)ETE production from arachidonic acid preincubated for 15 mins by HPLC analysis; format: cell-based
T5 sequence (P16050 whole entry): T3 sequence (whole entry)

[7] = molecular target: T6, Prostaglandin G/H synthase 1 (Ovis aries) (UniProt P05979); assay: Inhibition of purified ovine COX1 preincubated for 5 mins by HPLC analysis
T6 sequence (whole entry): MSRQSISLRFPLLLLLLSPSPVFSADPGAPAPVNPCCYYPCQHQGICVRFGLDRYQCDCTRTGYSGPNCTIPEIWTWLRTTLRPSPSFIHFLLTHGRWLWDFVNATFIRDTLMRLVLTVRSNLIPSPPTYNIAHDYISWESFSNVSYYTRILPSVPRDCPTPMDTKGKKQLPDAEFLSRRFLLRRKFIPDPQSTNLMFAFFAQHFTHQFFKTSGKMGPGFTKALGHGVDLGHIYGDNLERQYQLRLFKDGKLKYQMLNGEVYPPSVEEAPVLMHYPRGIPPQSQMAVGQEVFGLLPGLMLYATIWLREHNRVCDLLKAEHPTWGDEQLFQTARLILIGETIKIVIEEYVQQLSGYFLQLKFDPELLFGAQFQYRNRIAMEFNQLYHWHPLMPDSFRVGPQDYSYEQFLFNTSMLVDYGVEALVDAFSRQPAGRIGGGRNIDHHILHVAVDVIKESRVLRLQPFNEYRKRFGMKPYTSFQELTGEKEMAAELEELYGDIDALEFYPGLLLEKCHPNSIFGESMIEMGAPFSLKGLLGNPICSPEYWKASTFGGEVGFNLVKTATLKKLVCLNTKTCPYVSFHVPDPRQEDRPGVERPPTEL

| Structure (SMILES) | Activity [1] | IC50 [2] | Activity [3] | IC50 [4] | inhibition [5] | IC50 [6] | inhibition [7] |
| --- | --- | --- | --- | --- | --- | --- | --- |
| CCOC(=O)c1c(CSc2ccccc2)n(C)c2ccc(O)cc12 | 92.4% | 5.7 µM | 130% | 2.4 µM | – | – | – |
| CCOC(=O)c1c(CSc2ccc(C(F)(F)F)cc2)n(C)c2ccc(O)cc12 | 102% | 4.2 µM | 114% | > 10 µM | – | – | – |
| CCOC(=O)c1c(CSc2ccc(F)cc2)n(C)c2ccc(O)cc12 | 100% | 5 µM | 120% | 9.1 µM | – | – | – |
| CCOC(=O)c1c(CSc2ccc(F)cc2F)n(C)c2ccc(O)cc12 | 91.4% | 3.2 µM | 102% | 6.8 µM | – | – | – |
| N#C/C(=C\c1ccc(O)c(O)c1)C(=O)OC/C=C/c1ccccc1 | 5.6% | – | 11.1% | – | – | – | – |
| CCOC(=O)c1c(CSc2cccc(Cl)c2)n(C)c2ccc(O)cc12 | 92.9% | 3.8 µM | 114% | > 10 µM | – | – | – |
| CCOC(=O)c1c(CSc2ccc(OC)cc2)n(C)c2ccc(O)cc12 | 92.1% | 2.3 µM | 128% | 3.1 µM | – | – | – |
| CCOC(=O)c1c(CSc2ccccc2OC)n(C)c2ccc(O)cc12 | 108% | 2.9 µM | 136% | 5.1 µM | – | – | – |

Further compounds by falling IC50 [2], results first:

| Activity [1] | IC50 [2] | Activity [3] | IC50 [4] | inhibition [5] | IC50 [6] | inhibition [7] | Structure (SMILES) |
| --- | --- | --- | --- | --- | --- | --- | --- |
| 107% | 1.8 µM | 150% | 2.7 µM | – | – | – | CCOC(=O)c1c(CSc2cc(C)cc(C)c2)n(C)c2ccc(O)cc12 |
| 94.1% | 0.9 µM | 107% | 2.1 µM | – | – | – | CCOC(=O)c1c(CSc2ccc(OC(F)(F)F)cc2)n(C)c2ccc(O)cc12 |
| 104% | 0.8 µM | 126% | 1.2 µM | – | – | – | CCOC(=O)c1c(CSc2ccccc2C(F)(F)F)n(C)c2ccc(O)cc12 |
| 103% | 0.8 µM | 136% | 0.9 µM | inactive | – | inactive | CCOC(=O)c1c(CSc2c(Cl)cccc2Cl)n(C)c2ccc(O)cc12 |
| 94.1% | 0.8 µM | 125% | 1.2 µM | – | – | – | CCOC(=O)c1c(CSc2c(C)cccc2C)n(C)c2ccc(O)cc12 |
| 86.5% | 0.7 µM | 33% | 0.23 µM | inactive | 8.2 µM | inactive | CCOC(=O)c1c(CSc2c(C)cc(C)cc2C)n(C)c2ccc(O)cc12 |
